Experimental data: patent US8404684B2, “Inhibitors of phosphatidylinositol 3-kinase” (Novartis AG, priority 2003, dated 2013)

Target: T1, recombinant GST-p110γ (human PI3Kγ, residues 38-1102) (Homo sapiens, UniProt P48736)
T1 construct: Residues 38-1102 of human PI3Kγ are subcloned into the BamH1 and EcoR1 sites; made in house; host or cells: Sf9 (Spodoptera frugiperda) insect cells, baculovirus
Assay: PI3Kγ in vitro kinase assay (Scintillation Proximity Assay), transfer of terminal phosphate of ATP to phosphatidylinositol
Assay type: biochemical
Conditions: 12.5 μM ATP, 15 μg/ml phosphatidylinositol, 60 minutes at room temperature
Source text: Baculovirus expressing different fragments of PI3Kγ fused to GST have been previously described by Stoyanova, S., Bulgarelli-Leva, G., Kirsch, C., Hanck, T., Klinger, R., Wetzker, R., Wymann, M. P. (1997) Lipid- and protein kinase activities of G protein-coupled PI 3-kinase g: structure-activity analysis and interactions with wortmannin. Biochem. J., 324:489. Residues 38-1102 of human PI3Kγ are subcloned into the BamH1 and EcoR1 sites of the transfer vector pAcG2T (Pharmingen) to create a GST-PI3Kγ lacking the first 37 residues of PI3Kγ. To express the recombinant protein, Sf9 (Spodoptera frugiperda 9) insect cells are routinely maintained at densities between 3×10^5 and 3×10^6 cells/ml in serum containing TNMFH medium (Sigma). Sf9 cells, at a density of 2×10^6 are infected with human GST-PI3KγΔ34 baculovirus at a multiplicity of infection (m.o.i.) of 1 for 72 hours. The infected cells are harvested by centrifugation at 1400 g for 4 minutes at 4° C. and the cell pellets are frozen at −80° C. Both Sf9 and Sf21 cells work equally well. Sf9 cells (1×10^9) are resuspended in 100 ml cold (4° C.) lysis buffer (50 mM Tris-HCl pH 7.5, 1% Triton X-100, 150 mM NaCl, 1 mM NaF, 2 mM DTT and protease inhibitors. Cells are incubated on ice for 30 minutes then centrifuged at 15000 g for 20 minutes at 4° C. Purification of the supernatant sample is carried out at 4° C. by affinity chromatography using SEPHAROSE™ agarose gel beads coupled to glutathione (from Amersham Pharmacia Biotech). A cell lysate/GST resin ratio of 50:1 is used. The GST resin is firstly pre-rinsed to remove ethanol preservative and then equilibrated with lysis buffer. Cell lysate (supernatant) is added (usually as 50 ml lysate to 1 ml GST resin in 50 ml tubes) and gently rotated on a mixer at 4° C. for 2-3 hours. The unbound flow through sample is collected by centrifugation at 1000 g for 5 minutes at 4° C. using a DENLEY™ centrifuge. The 1 ml GST resin containing bound material is transferred to a 15 ml FALCON™ centrifuge tube for subsequent washing and elution steps. Firstly a series of 3 cycles of washings (mixing by gentle inversion) is performed with 15 ml ice cold wash Buffer A (50 mM Tris-HCl pH 7.5, 1% Triton X-100, 2 mM DTT) interspersed with centrifugation at 1000 g for 5 minutes at 4° C. A final single wash step is performed with 15 ml ice cold wash Buffer B (50 mM Tris-HCl pH 7.5, 2 mM DTT) and then centrifuged at 1000 g for 5 minutes at 4° C. The washed GST resin is finally eluted with 4 cycles of 1 ml ice cold elution buffer (50 mM Tris-HCl pH 7.5, 10 mM reduced glutathione, 2 mM DTT, 150 mM NaCl, 1 mM NaF, 50% ethylene glycol and protease inhibitors) interspersed with centrifugation at 1000 g for 5 minutes at 4° C. Samples are aliquoted and stored at −20° C.
An in vitro kinase assay is established that measures the transfer of the terminal phosphate of adenosine triphosphate to phosphatidylinositol. The kinase reaction is performed in a white 96 well microtitre plate as a Scintillation Proximity Assay. Each well contains 10 μl test compound in 5% dimethylsulphoxide and 20 μl assay mix (40 mM Tris, 200 mM NaCl, 2 mM ethyleneglycol-aminoethyl-tetraacetic acid (EGTA), 15 μg/ml phosphatidylinositol, 12.5 μM adenosine triphosphate (ATP), 25 mM MgCl2, 0.1 μCi [^33P]ATP). The reaction is started by the addition of 20 μl of enzyme mix (40 mM Tris, 200 mM NaCl, 2 mM EGTA containing recombinant GST-p110γ). […]

T1 sequence (P48736 38-1102): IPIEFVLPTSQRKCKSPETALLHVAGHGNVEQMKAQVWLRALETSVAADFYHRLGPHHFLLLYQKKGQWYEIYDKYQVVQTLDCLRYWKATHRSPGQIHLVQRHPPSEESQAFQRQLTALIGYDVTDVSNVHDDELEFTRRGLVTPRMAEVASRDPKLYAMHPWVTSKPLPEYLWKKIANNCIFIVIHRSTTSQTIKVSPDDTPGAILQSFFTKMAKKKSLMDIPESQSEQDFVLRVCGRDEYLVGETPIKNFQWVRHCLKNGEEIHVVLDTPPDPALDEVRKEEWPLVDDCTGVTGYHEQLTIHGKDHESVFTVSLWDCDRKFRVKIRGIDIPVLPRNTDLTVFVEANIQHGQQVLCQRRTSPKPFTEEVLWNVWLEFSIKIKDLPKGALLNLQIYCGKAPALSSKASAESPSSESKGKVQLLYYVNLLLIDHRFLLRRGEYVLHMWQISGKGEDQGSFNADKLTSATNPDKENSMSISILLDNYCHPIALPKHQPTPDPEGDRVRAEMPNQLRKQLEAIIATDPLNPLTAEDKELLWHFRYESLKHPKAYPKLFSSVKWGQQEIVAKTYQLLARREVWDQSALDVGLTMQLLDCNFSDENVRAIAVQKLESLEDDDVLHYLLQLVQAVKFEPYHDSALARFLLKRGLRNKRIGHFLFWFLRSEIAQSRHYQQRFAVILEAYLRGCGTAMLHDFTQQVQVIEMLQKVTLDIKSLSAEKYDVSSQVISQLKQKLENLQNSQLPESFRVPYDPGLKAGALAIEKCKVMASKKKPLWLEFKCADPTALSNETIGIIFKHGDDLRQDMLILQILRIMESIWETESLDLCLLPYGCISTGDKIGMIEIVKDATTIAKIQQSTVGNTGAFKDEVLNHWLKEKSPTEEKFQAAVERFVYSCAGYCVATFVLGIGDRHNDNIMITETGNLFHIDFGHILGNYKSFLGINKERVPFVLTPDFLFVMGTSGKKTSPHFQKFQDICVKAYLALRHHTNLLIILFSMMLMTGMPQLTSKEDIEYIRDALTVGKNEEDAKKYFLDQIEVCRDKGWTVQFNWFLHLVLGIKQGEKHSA

Compound	IC50 [nM]
2-{3-[5-(2-methanesulfinyl-6-methyl-pyrimidin-4-yl)-4-methyl-thiazol-2-yl]-ureido}-N,N-dimethyl-acetamide [Example 67]	16
Cc1nc(Nc2cnccn2)sc1-c1ccncc1 [Example 1, (4-Methyl-5-pyridin-4-yl-thiazol-2-yl)-pyrazin-2-yl-amine]	75
Cc1nc(Nc2cnccn2)sc1-c1ccnc(-n2ccnc2)c1 [Example 6, [5-(2-Imidazol-1-yl-pyridin-4-yl)-4-methyl-thiazol-2-yl]-pyrazin-2-yl-amine]	165
Cc1nc(Nc2cc[nH]n2)sc1-c1ccnc(N2CCOCC2)c1 [Example 11, [4-Methyl-5-(2-morpholin-4-yl-pyridin-4-yl)-thiazol-2-yl]-(1H-pyrazol-3-yl)-amine]	93
CCOC(=O)CCNC(=O)Nc1nc(C)c(-c2ccncc2)s1 [Example 17, 3-[3-(4-Methyl-5-pyridin-4-yl-thiazol-2-yl)-ureido]-propionic acid ethyl ester]	106
Cc1nc(NC(=O)NCc2cccn2C)sc1-c1ccncc1 [Example 22, 1-(4-methyl-5-pyridin-4-yl-thiazol-2-yl)-3-(1-methyl-1H-pyrrol-2-ylmethyl)-urea]	50
CC(=O)Nc1nc(C)c(-c2ccnc(C3CC3)n2)s1 [Example 27, N-[5-(2-Cyclopropyl-pyrimidin-4-yl)-4-methyl-thiazol-2-yl]-acetamide]	17
CCc1cnc(CCNC(=O)Nc2nc(C)c(-c3ccnc(Cl)c3)s2)o1 [Example 33, 1-[5-(2-chloro-pyridin-4-yl)-4-methyl-thiazol-2-yl]-3-[2-(5-ethyl-oxazol-2-yl)-ethyl]-urea]	73
CCc1cnc(CCNC(=O)Nc2nc(C)c(-c3cc(C)nc(OC)n3)s2)o1 [Example 56, 1-[2-(5-Ethyl-oxazol-2-yl)-ethyl]-3-[5-(2-methoxy-6-methyl-pyrimidin-4-yl)-4-methyl-thiazol-2-yl]-urea]	127
Cc1nc(NC(=O)NCCC(=O)OC(C)(C)C)sc1-c1ccnc(C2CC2)n1 [Example 82, 3-{3-[5-(2-cyclopropyl-pyrimidin-4-yl)-4-methyl-thiazol-2-yl]-ureido}-propionic acid tert-butyl ester]	164
Cc1nc(N)sc1-c1ccnc(C(C)(C)C)n1 [Example 91, 5-(2-tert-Butyl-pyrimidin-4-yl)-4-methyl-thiazol-2-ylamine]	25
COCCNC(=O)Nc1nc(C)c(-c2ccnc(C(C)(C)C)n2)s1 [Example 108, 1-[5-(2-tert-butyl-pyrimidin-4-yl)-4-methyl-thiazol-2-yl]-3-(2-methoxy-ethyl)-urea]	5
CCOCCNC(=O)Nc1nc(C)c(-c2ccnc(C(C)(C)C)n2)s1 [Example 120, 1-[5-(2-tert-butyl-pyrimidin-4-yl)-4-methyl-thiazol-2-yl]-3-(2-ethoxy-ethyl)-urea]	8
